Results on 18 compounds are retold here after patent US12448394B2, “Heterocyclic pyrazole derivatives as type III receptor tyrosine kinase inhibitors” (DEVELOPMENT CENTER FOR BIOTECHNOLOGY, priority 2019, dated 2025).

Positions count from the first letter of the chain named.

Test [1] concerns the target T1, FLT3-D835Y mutant kinase (Homo sapiens, UniProt P36888, D835Y).
T1 construct: purchased SignalChem
T1 sequence (P36888 27-993 D835Y): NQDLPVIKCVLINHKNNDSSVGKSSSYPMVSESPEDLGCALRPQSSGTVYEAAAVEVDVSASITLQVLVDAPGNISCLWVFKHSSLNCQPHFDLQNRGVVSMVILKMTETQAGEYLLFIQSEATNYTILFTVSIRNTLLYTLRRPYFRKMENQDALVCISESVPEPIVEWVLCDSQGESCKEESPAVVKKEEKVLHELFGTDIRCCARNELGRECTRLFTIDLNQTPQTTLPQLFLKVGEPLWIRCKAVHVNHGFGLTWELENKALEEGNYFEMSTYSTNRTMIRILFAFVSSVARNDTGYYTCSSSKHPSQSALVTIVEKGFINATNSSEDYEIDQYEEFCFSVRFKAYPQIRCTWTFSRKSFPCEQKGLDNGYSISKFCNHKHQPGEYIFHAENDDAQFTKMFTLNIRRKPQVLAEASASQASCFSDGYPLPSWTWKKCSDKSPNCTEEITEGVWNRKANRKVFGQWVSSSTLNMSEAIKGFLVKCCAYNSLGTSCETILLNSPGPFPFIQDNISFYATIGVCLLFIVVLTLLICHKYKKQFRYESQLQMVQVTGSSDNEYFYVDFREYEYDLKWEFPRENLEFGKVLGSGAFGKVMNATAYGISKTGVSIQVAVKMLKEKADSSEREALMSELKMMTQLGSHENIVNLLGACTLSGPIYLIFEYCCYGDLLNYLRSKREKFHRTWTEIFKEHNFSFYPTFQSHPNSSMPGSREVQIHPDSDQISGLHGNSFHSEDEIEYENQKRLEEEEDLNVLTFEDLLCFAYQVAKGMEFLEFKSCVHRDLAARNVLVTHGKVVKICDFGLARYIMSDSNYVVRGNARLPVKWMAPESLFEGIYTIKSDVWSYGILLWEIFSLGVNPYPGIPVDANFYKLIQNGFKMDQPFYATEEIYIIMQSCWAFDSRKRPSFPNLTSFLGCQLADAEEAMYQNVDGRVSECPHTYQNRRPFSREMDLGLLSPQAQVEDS
Briefly: FLT3-D835Y mutant kinase assay (AlphaScreen). In kind it is biochemical. Conditions: read-out: Ranking of IC50 values, FLT3-D835Y. In a few lines:
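AlphaScreen readout of biotin-poly(Glu4:Tyr1) phosphorylation by 1 ng recombinant FLT3-D835Y. Conditions were 10 μM ATP, 10 mM MgCl2, MOPS pH 7.0, 30 min at 30 °C, EDTA stop. Compounds were serially diluted in duplicate to derive IC50.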
A general note: Bead proximity is the source of the signal in Alpha formats.

For test [2], the target named is T2, FLT3 kinase (Homo sapiens, UniProt P36888).
T2 construct: purchased SignalChem
T2 sequence (P36888 27-993): T1 sequence (P36888 27-993 D835Y) with Y809D
Briefly: FLT3 kinase assay (AlphaScreen). Type of test: biochemical. To be noted: read-out: Ranking of IC50 values, FLT3. An outline of the steps: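 AlphaScreen detection of biotin-poly(Glu4:Tyr1) phosphorylation by 1.5 ng recombinant FLT3 (10 μM ATP, pH 7.0 MOPS, 10 mM MgCl2; 30 °C, 30 min, EDTA quench). IC50 values derived from serially diluted compound tested in duplicate.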

For orientation: IC50 means the concentration needed to halve the response being measured. Consider `Cn1ncc2ccc(-c3n[nH]c4c3Cc3sc(-c5cccc(CN6CCOCC6)c5)cc3-4)cc21` [Compound 13, 4-(3-(3-(1-methyl-1H-indazol-6-yl)-1,4-dihydro-thieno[2′,3′:4,5]cyclopenta [1,2-c]pyrazol-6-yl)benzyl) morpholine], for which the half-maximal inhibitory concentration (IC50) in test [1] and in test [2] was 1 to 10 nM throughout.
Turning to `Cn1ncc2ccc(-c3n[nH]c4c3Cc3sc(-c5cncc(C(=O)N6CCOCC6)c5)cc3-4)cc21` [Compound 31, (5-(3-(1-methyl-1H-indazol-6-yl)-1,4-dihydrothieno[2′,3′:4,5]cyclopenta[1,2-c]pyrazol-6-yl)pyridin-3-yl) (morpholino)methanone], the IC50 in test [1] and in test [2] was under 1 nM throughout.
For `CC1C(=O)N(C)CCN1Cc1ccc(-c2cc3c(s2)Cc2c(-c4ccc5cnn(C)c5c4)n[nH]c2-3)cc1` (stereo not drawn) [Compound 65, 1,3-dimethyl-4-(4-(3-(1-methyl-1H-indazol-6-yl)-1,4-dihydrothieno [2′,3′:4,5]cyclopenta [1,2-c]pyrazol-6-yl)benzyl)piperazin-2-one], the results for the IC50 in test [1] and in test [2] were under 1 nM and 1 to 10 nM, respectively.
On to `Cn1ncc2ccc(-c3n[nH]c4c3Cc3sc(-c5cc(C(=O)N6CCOCC6)ccn5)cc3-4)cc21` [Compound 56, (2-(3-(1-methyl-1H-indazol-6-yl)-1,4-dihydro-thieno[2′,3′:4,5]cyclopenta [1,2-c]pyrazol-6-yl)pyridin-4-yl)(morpholino) methanone], for which the IC50 in test [1] and in test [2] was 1 to 10 nM throughout.
`Cn1ncc2ccc(-c3n[nH]c4c3Cc3sc(-c5cnc(C(=O)N6CCOCC6)nc5)cc3-4)cc21` [Compound 41, (5-(3-(1-methyl-1H-indazol-6-yl)-1,4-dihydrothieno[2′,3′:4,5]cyclopenta[1,2-c]pyrazol-6-yl)pyrimidin-2-yl) (morpholino)methanone]: the IC50 in test [1] was 1 to 10 nM; in test [2], under 1 nM.
Turning to `Cn1ncc2ccc(-c3n[nH]c4c3Cc3sc(-c5cnc(N)nc5)cc3-4)cc21` [Compound 45, 5-(3-(1-methyl-1H-indazol-6-yl)-1,4-dihydrothieno [2′,3′:4,5]cyclopenta[l,2-c]pyrazol-6-yl)pyrimidin-2-amine], the IC50 in test [1] and in test [2] was under 1 nM each time.
For the compound `Cn1ncc2ccc(-c3n[nH]c4c3Cc3sc(-c5ccc(CCN6CCOCC6=O)cc5)cc3-4)cc21` [Compound 66, 4-(4-(3-(1-methyl-1H-indazol-6-yl)-1,4-dihydro-thieno[2′,3′:4,5]cyclopenta [1,2-c]pyrazol-6-yl)phenethyl)morpholin-3-one], the IC50 in test [1] and in test [2] was under 1 nM each time.
Consider `Cn1ncc2ccc(-c3n[nH]c4c3Cc3sc(C#CCN5CCOCC5)cc3-4)cc21` [Compound 71, 4-(3-(3-(1-methyl-1H-indazol-6-yl)-1,4-dihydro-thieno[2′,3′:4,5]cyclopenta [1,2-c]pyrazol-6-yl)prop-2-yn-1-yl)morpholine], for which the values for the IC50 in test [1] and in test [2] were under 1 nM and 1 to 10 nM, respectively.
For `Cn1ncc2ccc(-c3n[nH]c4c3Cc3sc(-c5ccc(CN6CCOCC6)cc5)cc3-4)cc21` [Compound 8, 4-(4-(3-(1-methyl-1H-indazol-6-yl)-1,4-dihydro-thieno[2′,3′:4,5]cyclopenta [1,2-c]pyrazol-6-yl)benzyl) morpholine], in that order: 1 to 10 nM and under 1 nM.
For `Cn1ncc2ccc(-c3n[nH]c4c3Cc3sc(-c5ccc(CN6CCNC(=O)C6)cc5)cc3-4)cc21` [Compound 63, 4-(4-(3-(1-methyl-1H-indazol-6-yl)-1,4-dihydro-thieno[2′,3′:4,5]cyclopenta [1,2-c]pyrazol-6-yl)benzyl)piperazin-2-one], the IC50 in test [1] and in test [2] was 1 to 10 nM throughout.
As to `Cn1ncc2ccc(-c3n[nH]c4c3Cc3sc(-c5ccc(CN6CCC(N7CCOCC7)CC6)cc5)cc3-4)cc21` [Compound 80, 4-(1-(4-(3-(1-methyl-1H-indazol-6-yl)-1,4-dihydro-thieno[2′,3′:4,5]cyclopenta [1,2-c]pyrazol-6-yl)benzyl)piperidin-4-yl) morpholine], the IC50 in test [1] and in test [2] was under 1 nM each time.
For the compound `Cn1ncc2ccc(-c3n[nH]c4c3Cc3sc(-c5ccc(C(=O)N6CCOCC6)cc5)cc3-4)cc21` [Compound 21, (4-(3-(1-methyl-1H-indazol-6-yl)-1,4-dihydro-thieno[2′,3′:4,5]cyclopenta [1,2-c]pyrazol-6-yl)phenyl) (morpholino)methanone], the IC50 in test [1] and in test [2] was under 1 nM throughout.
On to `Cn1ncc2ccc(-c3n[nH]c4c3Cc3sc(-c5ccc(CN6CCOCC6)cn5)cc3-4)cc21` [Compound 95, 4-((6-(3-(1-methyl-1H-indazol-6-yl)-1,4-dihydro-thieno[2′,3′:4,5]cyclopenta [1,2-c]pyrazol-6-yl)pyridin-3-yl)methyl) morpholine], for which the IC50 in test [1] and in test [2] was under 1 nM in each case.
Take `Cn1ncc2ccc(-c3n[nH]c4c3Cc3sc(-c5ccc(CN6CCOCC6=O)cc5)cc3-4)cc21` [Compound 59, 4-(4-(3-(1-methyl-1H-indazol-6-yl)-1,4-dihydro-thieno[2′,3′:4,5]cyclopenta [1,2-c]pyrazol-6-yl)benzyl)morpholin-3-one]: the IC50 in test [1] and in test [2] was under 1 nM throughout.
As to `Cn1ncc2ccc(-c3n[nH]c4c3Cc3sc(-c5cccc(OCCN6CCOCC6)c5)cc3-4)cc21` [Compound 70, 4-(2-(3-(3-(1-methyl-1H-indazol-6-yl)-1,4-dihydro-thieno[2′,3′:4,5]cyclopenta [1,2-c]pyrazol-6-yl)phenoxy)ethyl)morpholine], the values for the IC50 in test [1] and in test [2] were under 1 nM and 1 to 10 nM, respectively.
For `CC(C)Cn1ncc2ccc(-c3n[nH]c4c3Cc3sc(-c5ccc(CN6CCOCC6)cc5)cc3-4)cc21` [Compound 35, 4-(4-(3-(1-isobutyl-1H-indazol-6-yl)-1,4-dihydro-thieno[2′,3′:4,5]cyclopenta [1,2-c]pyrazol-6-yl)benzyl)morpholine], in that order: 1 to 10 nM and 1 to 10 nM.
As for `c1cc(-c2cc3c(s2)Cc2c(-c4ccc5cn[nH]c5c4)n[nH]c2-3)ccc1CN1CCOCC1` [Compound 6, 4-(4-(3-(1H-indazol-6-yl)-1,4-dihydrothieno[2′,3′:4,5]cyclopenta[1,2-c]pyrazol-6-yl)benzyl)morpholine], the IC50 in test [1] and in test [2] was under 1 nM throughout.
On to `Cn1ncc2ccc(-c3n[nH]c4c3Cc3sc(-c5ccc(CN6CCSCC6)cc5)cc3-4)cc21` [Compound 39, 3-(1-methyl-1H-indazol-6-yl)-6-(4-(thiomorpho-linomethyl)phenyl)-1,4-dihydrothieno[2′,3′:4,5] cyclopenta[1,2-c]pyrazole], for which the IC50 in test [1] and in test [2] was 1 to 10 nM throughout.
